Experimental data from patent publication US4631293A, “(-) Campholenic acid ester of salicylic acid and pharmaceutically acceptable salts thereof having mucosecretolytic, anti-inflammatory, analgesic, and antipyretic activity” (Camillo Corvi S.p.A., priority 1984, dated 1986).
Entries after “also recorded” stand apart in the source; their conditions may differ. Where two headings read alike, the source gives them in different places.

Key:
mouse [1] = assay: Lethal dose 50 (LD50) in the mouse after a single oral administration; type: in vivo; details: in comparison with acetylsalicylic acid
Method: (§1) Method for studying the lethal dose 50(LD50) in the mouse after a single administration.
(§2) Groups of 10 Swiss albine, female, adult (20-22 g of body weight) mice, fasting from the evening preceding the test, are treated orally with various doses of the test drug suspended in hydroxyethylcellulose (0.50% weight/volume).
(§3) Thereafter, the animals are fed again.
(§4) LD50 is calculated by the method of Litchfield J. T. and Wilcoxon F. (J. Pharmacol. 96, 99-113, 1949) by utilizing the mortality data as obtained on the 14th day after the test drug administration.

[2] = as above; type: in vivo; details: in vivo, single administration, 14th day mortality
Method: as §1, §2, §3, §4

bronchial secretion = assay: Bronchosecretagogue activity: quantitative evaluation of the bronchial secretion of rabbit (Scuri et al.); type: in vivo, rabbit (adult male brown); details: oral
Excerpt: Method of quantitative evaluation of the bronchial secretion of rabbit according to Scuri R. et al. Boll. Chim. Farm. […] Adult male brown rabbits (2.8-3.5 kg of body weight) are employed, to which a T shaped tracheal cannula, by surgical operation, as described in the mentioned bibliographic reference, is applied. To the cannula, a container for periodical collection of the bronchial secretion is applied. The study of mucoproduction, started at the fourth day after the operation, is divided into two periods, each of 4 hours, for collecting and measuring the mucus secreted. The action of the drug under examination, is tested by administering the same orally at the begining of the second mucus collection period and evaluating the percent increase of mucus production (as measured gravimetrically in the second period in comparison with the first period).

[3] = system: carrageenin induced oedema; assay: Anti-oedemigenous activity: carrageenin induced oedema (Winter et al.); type: in vivo, rat (female albine Wistar); details: for ED40: 3 h, read-out: Anti-oedemigenous activity ED40
Method: Method of carrageenin induced oedema according to Winter C. A. et al--Proc. Soc. […] Female albine Wistar rats (120-160 g of body weight) are utilized. The drug under test is administered orally one hour before injection into the right hind paw of a carrageenin water suspension (1% volume injected ml 0.05).

yeast induced pyrexia = assay: Antipyretic activity: yeast induced pyrexia in the rat; type: in vivo, rat (female Wistar albine); details: for ED50: oral simultaneously with yeast, Temperature Index
Method: Method of yeast induced pyrexia in the rat. Female Wistar albine rats, weighing 100-140 g, are utilized. The animals having a basal rectal temperature from 36° to 37° C. are selected. The testing substances are administered orally simultaneously with the pyretic agent (dry brewers' yeast suspended in water at the 20% concentration, administered volume 15 ml/kg, subcutaneously) to groups of 5 animals per dose. After 4, 5, 6, 7 and 24 hours from the treatment, the rectal temperature of the animals is recorded by an Ellab RM6 probe, connected to an Ellab-mod. TE-3 thermometer. The activity of the drugs is evaluated by utilizing a Temperature Index, which is given by the algebraic sum of the differences in the rectal temperature between the measure values at different times and the basal value;

pleural exudate = assay: Anti-exudative activity: quantitative evaluation of the pleural exudate of a rat (carrageenin pleuritis); type: in vivo, rat (female albine Wistar); details: for ED50: 6 h, read-out: Anti-exudative activity ED50
Method: Method of the quantitative evaluation of the pleural exudate of a rat according to Vinegar E. et al.-Proc. Soc. […] Female albine Wistar rats (average weight 160 g), fasting from the evening preceding the test, are used. The experimental pleuritis is induced by injecting into the pleural cavity, under ethereal anesthesia, 0.15 ml of a 1% carrageenin solution (Prodotti Gianni-Milano). The test drug is administered orally, half an hour before the carrageenin. Six hours after the carrageenin injection, the animals are sacrificed and volumetric measurement of the pleural exudate, as withdrawn by a syringe, is performed.

[4] = system: phenylquinone abdominal contractions; assay: Analgesic activity: phenylquinone method (abdominal contractions); type: in vivo, mouse (female Swiss albine); details: for ED50: read-out: Analgesic activity ED50; for analgesic activity (in words): oral, comparison with acetylsalicylic acid
Method: Female Swiss albine mice (20-25 g), fasting for 2 hours, are utilized.
The test drug is administered orally 30 minutes before the endoperitoneal injection of phenylquinone (0.08 mg/mouse).
The characteristic abdominal contractions are counted individually during a 20 minutes period.

[5] = Gastric tolerability: gastric ulcerogenesys by repeated drug administrations; type: in vivo, rat (female Wistar albine); details: rat, in vivo, po
Method: (§5) Method of gastric ulcerogenesys by repeated drug administrations.
(§6) Fed female Wistar albine rats (140-160 g of initial body weight) are used.
(§7) The drug under test is administered orally, daily, for five days. At the end of the test the stomach of the rats is withdrawn, it is dissected along the lesser curvature, washed and observed in order to disclose the presence of either gastric lesions or manifest submucosa hemorrhages.
(§8) The "ulcerogenic dose 50" (UD50) is defined as the daily dose able to induce lesions or hemorrhages in 50% of the animals treated.

stomach [6] = assay: as above; type: in vivo, rat (female Wistar albine); details: rat
Method: as §5, §6, §7, §8

stomach [7] = details: Arrigono-Martelli, Meth. Find. Exp. Clin. Pharmacol. 1, 157, 1979; 7200 min; cited from earlier work
mouse [8] = details: literature datum, Hart E R J. Pharm. Exp. Ther. 89 205, 1947; 20160 min; cited from earlier work

For CC1=CCC(CC(=O)Oc2ccccc2C(=O)O)C1(C)C (single isomer, unassigned) [CO/1473, 2-(2,2,3-trimethyl-3-cyclopentene-1-acetoxy)benzoic acid], the “acute toxicity (in words)” value (mouse [1]) was “low acute toxicity”, the LD50 at 336 h [2] was 913 mg/kg and the ED50 (bronchial secretion; Oryctolagus cuniculus, 4 h, percent increase of mucus production) was 60 mg/kg. The “bronchosecretagogue activity (in words)” value (bronchial secretion) was “has bronchosecretagogue activity in the rabbit”, the ED40 ([3]; rat, oral one hour before carrageenin, paw volume after three hours) was 400 mg/kg and the “anti-oedemigenous activity in comparison with acetylsalicylic acid (in words)” value ([3]; rat, oral, first test of Table 3) was “superior in the first test”. For the same molecule, the ED50 (yeast induced pyrexia) was 400 mg/kg, the “antipyretic activity (in words)” value (yeast induced pyrexia; oral, comparison with acetylsalicylic acid) was “interesting antipyretic activity in the rat, though lower than the one of acetylsalicylic acid” and the ED50 (pleural exudate; rat, oral half an hour before carrageenin, exudate volume after six hours) was 320 mg/kg. For the same molecule, the “anti-exudative activity in comparison with acetylsalicylic acid (in words)” value (pleural exudate; rat, oral, second test of Table 3) was “slightly inferior in the second”, the ED50 ([4]; mouse, oral 30 minutes before phenylquinone) was 52 mg/kg and the “analgesic activity (in words)” value ([4]; mouse) was “slightly more active than acetylsalicylic acid”. The NOAEL at 120 h [5] was 800 mg/kg and the “gastro-damaging effect (in words)” value (stomach [6]; up to the maximum dose of 800 mg/kg os/die for 5 days, listed as compound of the invention, 800 mg/kg) was “does not show any gastro-damaging effect; also recorded: very good gastric tolerability”.
For CC(=O)Oc1ccccc1C(=O)O [acetylsalicylic acid, reference compound], the “UD50 (ulcerogenic dose 50)” value (stomach [7]) is listed as 48 mg/kg os, the LD50 (mouse [8]) is listed as 1100 mg/kg os and the “Bronchosecretagogue activity ED50” value (bronchial secretion; percent increase of mucus production) is listed as “inactive”. The ED40 ([3]; Rattus norvegicus, po) was 400 mg/kg, the ED50 (yeast induced pyrexia) was 157 mg/kg and the ED50 (pleural exudate; Rattus norvegicus, po) was 215 mg/kg. For the same molecule, the ED50 ([4]; Mus musculus, po) was 70 mg/kg, the “analgesic activity (in words)” value ([4]; mouse) was “good analgesic activity in the mouse” and the “gastro-damaging dose, times lower than that of CO/1473” value (stomach [6]; oral, acetylsalicylic acid dose versus CO/1473 dose) was 16 times lower.
